The results in this text go back to patent US12642756B2, “Leave-on composition” (Firmenich SA, priority 2020, dated 2026).

The test system of experiment [1] is Hydrolase (Lipase solution 0.100 LU/ml). Kind of experiment: Fragrance evolution on Tzero lids (dynamic headspace), palmitate esters. Type of experiment: biochemical. The procedure:
To further investigate the release kinetics of palmitate esters in the presence of hydrolases, an in-vitro assay measuring the functional perfume ingredient in the gaseous phase was devised.
Three palmitate esters releasing respectively (2E,6Z)-nona-2,6-dien-1-ol (corresponding to invention's compound) and 3,7-dimethyl-2,6-octadien-1-ol (corresponding to comparative compound) were tested in the presence of physiologically relevant concentration of Hydrolase (0.1 LU/ml) as follows. 2.5 ul Lipase solution (0.100 LU/ml) was added to Tzero Lids TA [Part no. 901671.901] crucibles. 2.5 ul of 0%, […], 0.1%, […] and 1% solution in ethanol of palmitate esters were added to the same crucibles and placed on preheated precision hotplate to 32C. Additional aliquots of 2.5 ul water were added to the crucibles at 1 h and 4 h to simulate humidity on skin and facilitate hydrolysis. The crucibles were transferred to 20 ml headspace vials after […] at 32C.
Analysis performed by Dynamic Headspace using Tenax TA trap outlined as follows. GC-MS-DHS analyses were performed on an Agilent Gas Chromatograph system 7890B coupled to an Agilent Mass Selective Detector 5977B and equipped with a Gerstel MPS autosampler. […]

Experiment [2] can be described thus: Paneling of released fragrance alcohols on glass slides (sensory panel). The procedure:
Evaporation kinetics using 76 mm×51 mm glass slides was carried out. Prazitherm precision hotplate was pre-heated to 32 degrees Celsius for 30 minutes. Three glass slides were placed on the precision hotplate. Each glass slide is labeled with a unique code so that its identity is unknown to the panelists. Using a Gilson Microman M25 positive displacement pipette, […] of 0.1 LU lipase solution was dosed directly to the center of one of the glass slides. Then 20 μl of 1% (2E,6Z)-nona-2,6-dien-1-yl hexadecanoate was dosed very slowly to the lipase droplet. Once all the sample solution was applied onto the glass slide, the applied glass slide was evaporated on the precision hotplate for 4 hours at 32 degrees Celsius. Sample preparation for 1% (Z)-3-hexen-1-yl hexadecanoate solution and 1% 3,7-dimethyl-2,6-octadien-1-yl hexadecanoate solution were done the same way. Sample preparations for all three solutions were repeated for duplicates to replace each glass slide twice during the sensory panel period—the limit for a glass slide sample set (with 3 different glass slide samples) was 10 evaluations. At the 4-hour time interval, a spray bottle filled with deionized water was primed and then water was sprayed directly onto each glass slide once. One spray was enough to cover the glass slide. All glass slides were allowed to sit for 10 minutes before the sensory panel so the water was absorbed by the evaporated mixtures to represent humidity on skin. For evaluation, the panelist picks up the treated glass slides, smells the center and rates the intensity of each slide on an evaluation sheet.
In one test, the panelists rated odor intensity on a scale of 1 to 7 for each glass slide evaluated under release by the hydrolase at time 4 hours. The second approach was the so-called forced choice where panelists were forced to select the most intense out of the three […] after release with the Hydrolase at 4 hours at 0.1 LU/ml.

For experiment [3], the system named is lipase enzyme (Enzyme Innovation Addclean LP L). Kind of experiment: Reaction rate measurement in solution in the presence of a hydrolase (GC/MS). Type of experiment: biochemical. The procedure: The release kinetics of 3,7-dimethyl-2,6-octadien-1-yl hexadecanoate (comparative compound) and (2E,6Z)-nona-2,6-dien-1-yl hexadecanoate (invention's compound) in the presence of a hydrolase were compared.
In order to compare the reaction rate of the esters, the amount of 3,7-dimethyl-2,6-octadien-1-yl hexadecanoate and (2E,6Z)-nona-2,6-dien-1-yl hexadecanoate and the amount of ethyl hexadecanoate over time were measured by GC/MS. The ethyl hexadecanoate was formed by the reaction between the hexadecanoic acid released and the ethanol.
Enzyme Solution Preparation: The lipase enzyme source used was Enzyme Innovation Addclean LP L at an activity of 20000 Lipase Units/g. A stock solution of 100 LU/ml was prepared and diluted in serial dilution to working concentrations as follows:
The solutions comprising 3,7-dimethyl-2,6-octadien-1-yl hexadecanoate or (2E,6Z)-nona-2,6-dien-1-yl hexadecanoate (also called palmitate ester solutions) were prepared by dissolving in ethanol to 5% by weight. These were subsequently diluted to working conditions of the experiment.
In a 2 ml Agilent GC vial (Agilent 5183-2068), 50 ul of 100 LU/ml solution was added with a micropipette. 100 ul deionized water was added to ensure continued hydrolysis. Samples to were prepared for each time condition, replicate, and palmitate ester solutions of interest because the reaction will be stopped and only measured once at 0 hours, 0.5 hours and 1 hour. […]
The palmitate esters were prepared by dissolving in ethanol to 5% by weight (stock). Palmitate ester solution was further diluted to 0.2% and 50 ul added to all sample vials above and recorded as time zero. […] Samples were analyzed by GC/MS direct injection methodology as follows.
GC-MS analyses were performed on an Agilent Gas Chromatograph system 7890B coupled to an Agilent Mass Selective Detector 5977B and equipped with a Gerstel MPS autosampler or equivalent. […] External calibration curves of (2E,6Z)-nona-2,6-dien-1-yl hexadecanoate and 3,7-dimethyl-2,6-octadien-1-yl hexadecanoate were prepared at 10-500 ppm was prepared and sample signal quantified in ppm.

The subject of experiment [4] is Hydrolase (Lipase solution 0.100 LU/ml). In words: Fragrance evolution on Tzero lids (dynamic headspace) in a personal care base. The experiment is classed as biochemical. The conditions noted are these: day cream base O/W emulsion with 1 wt% compound, absence of hydrolase (water control), 32C, 4 hours. The procedure:
To confirm fragrance release in presence of personal care base, personal care base was formulated with invention's compound and analyzed by an in-vitro assay measuring the functional perfume ingredient in the gaseous phase.
Testing was done in the presence of physiologically relevant concentration of Hydrolase (0.1 LU/ml) as follows. […] 901671.901] crucibles. 2.5 ul of personal care base with (2E,6Z)-nona-2,6-dien-1-yl hexadecanoate was added to the same crucibles and placed on preheated precision hotplate to 32C. Additional aliquots of 2.5 ul water were added to the crucibles at 1 h and 4 h to simulate humidity on skin and facilitate hydrolysis. The crucibles were transferred to 20 ml headspace vials after 4 hours at 32C.
Analysis performed by Dynamic Headspace using Tenax TA trap outlined as follows. GC-MS-DHS analyses were performed on an Agilent Gas Chromatograph system 7890B coupled to an Agilent Mass Selective Detector 5977B and equipped with a Gerstel MPS autosampler. Additionally equipment of automated Gerstel Dynamic Headspace System, ATEX air sampling tube gripper for 20 mL headspace vials with a metal screw cap (preassembled with 1.3 mm PTFE septa) and Gerstel CIS 4C cryostatic cooling device CCD2 (Inlet 2) mounted with Gerstel TDU2 thermal desorption unit. […]

Where [5] appears, read: glass slide, 0.1 LU/ml lipase, 4 hours.

Consider `CC/C=C\CCOC(=O)CCCCCCCCCCCCCCC` [(Z)-3-hexen-1-yl hexadecanoate, reference compound], for which the “release rate compared with 3,7-dimethyl-2,6-octadien-1-yl hexadecanoate” value in experiment [1] (stated in Example 6, test not named) is recorded as “release faster than 3,7-dimethyl-2,6-octadien-1-yl hexadecanoate”. Also, the “perception / impression by the panelists” value in experiment [2] (setting [5]) is recorded as “not well perceived by the panelists”.

With `CC/C=C\CC/C=C/COC(=O)CCCCCCCCCCCCCCC` [(2E,6Z)-nona-2,6-dien-1-yl hexadecanoate], in experiment [3] (compared with 3,7-dimethyl-2,6-octadien-1-yl hexadecanoate), the “total rate of lipase-catalyzed reaction” value was “higher total rate of lipase-catalyzed reaction”. Besides, in experiment [3] (lipase 100 LU/ml solution, 32C, 0, 0.5 and 1 hour, GC/MS, compared with 3,7-dimethyl-2,6-octadien-1-yl hexadecanoate (FIG. 1)), the “concentration of the ester in solution in function of time” value is “decreased more rapid than the concentration of 3,7-dimethyl-2,6-octadien-1-yl hexadecanoate”. In addition, in experiment [3] (lipase, ethanol present, 32C, up to 1 hour, compared with 3,7-dimethyl-2,6-octadien-1-ol (FIG. 2)), the “release of the alcohol, confirmed by increase of ethyl hexadecanoate” value is given as “faster release of (2E,6Z)-nona-2,6-dien-1-ol compared to 3,7-dimethyl-2,6-octadien-1-ol”. The “rate of release of fragrance material into headspace” value in experiment [1] (Hydrolase 0.1 LU/ml, 32C, 4 hours, on Tzero lids (FIG. 3)) is given as “higher rate than 3,7-dimethyl-2,6-octadien-1-yl hexadecanoate”. In addition, in experiment [4], the “release of (2E,6Z)-nona-2,6-dien-1-ol in headspace from personal care base” value is “no release is observed”. Besides, the “odor intensity rated by panelists on a scale of 1 to 7” value in experiment [2] (1% solution on glass slide, 0.1 LU/ml lipase, 4 hours at 32 degrees Celsius, versus the two other hexadecanoates (FIG. 6)) was “significantly more intense”. For the same compound, the “perception / impression by the panelists” value in experiment [2] (setting [5]) is “the most intense impression”. For the same compound, in experiment [2] (glass slide, Hydrolase 0.1 LU/ml, 4 hours, three esters compared (FIG. 7)), the “forced choice: panelists who selected the sample as the most intense” value is reported as 20/21.
